Among the data in patent publication US20100204224A1, “AZACYCLIC COMPOUNDS AS INHIBITORS OF SENSORY NEURONE SPECIFIC SODIUM CHANNELS” (priority 2005, published 2010) are IC50 values, retold here.

Some results are limits rather than exact numbers.

For orientation: IC50 means the point on the concentration scale where inhibition reaches its midpoint.

T1 sequence (Q9Y5Y9 whole entry): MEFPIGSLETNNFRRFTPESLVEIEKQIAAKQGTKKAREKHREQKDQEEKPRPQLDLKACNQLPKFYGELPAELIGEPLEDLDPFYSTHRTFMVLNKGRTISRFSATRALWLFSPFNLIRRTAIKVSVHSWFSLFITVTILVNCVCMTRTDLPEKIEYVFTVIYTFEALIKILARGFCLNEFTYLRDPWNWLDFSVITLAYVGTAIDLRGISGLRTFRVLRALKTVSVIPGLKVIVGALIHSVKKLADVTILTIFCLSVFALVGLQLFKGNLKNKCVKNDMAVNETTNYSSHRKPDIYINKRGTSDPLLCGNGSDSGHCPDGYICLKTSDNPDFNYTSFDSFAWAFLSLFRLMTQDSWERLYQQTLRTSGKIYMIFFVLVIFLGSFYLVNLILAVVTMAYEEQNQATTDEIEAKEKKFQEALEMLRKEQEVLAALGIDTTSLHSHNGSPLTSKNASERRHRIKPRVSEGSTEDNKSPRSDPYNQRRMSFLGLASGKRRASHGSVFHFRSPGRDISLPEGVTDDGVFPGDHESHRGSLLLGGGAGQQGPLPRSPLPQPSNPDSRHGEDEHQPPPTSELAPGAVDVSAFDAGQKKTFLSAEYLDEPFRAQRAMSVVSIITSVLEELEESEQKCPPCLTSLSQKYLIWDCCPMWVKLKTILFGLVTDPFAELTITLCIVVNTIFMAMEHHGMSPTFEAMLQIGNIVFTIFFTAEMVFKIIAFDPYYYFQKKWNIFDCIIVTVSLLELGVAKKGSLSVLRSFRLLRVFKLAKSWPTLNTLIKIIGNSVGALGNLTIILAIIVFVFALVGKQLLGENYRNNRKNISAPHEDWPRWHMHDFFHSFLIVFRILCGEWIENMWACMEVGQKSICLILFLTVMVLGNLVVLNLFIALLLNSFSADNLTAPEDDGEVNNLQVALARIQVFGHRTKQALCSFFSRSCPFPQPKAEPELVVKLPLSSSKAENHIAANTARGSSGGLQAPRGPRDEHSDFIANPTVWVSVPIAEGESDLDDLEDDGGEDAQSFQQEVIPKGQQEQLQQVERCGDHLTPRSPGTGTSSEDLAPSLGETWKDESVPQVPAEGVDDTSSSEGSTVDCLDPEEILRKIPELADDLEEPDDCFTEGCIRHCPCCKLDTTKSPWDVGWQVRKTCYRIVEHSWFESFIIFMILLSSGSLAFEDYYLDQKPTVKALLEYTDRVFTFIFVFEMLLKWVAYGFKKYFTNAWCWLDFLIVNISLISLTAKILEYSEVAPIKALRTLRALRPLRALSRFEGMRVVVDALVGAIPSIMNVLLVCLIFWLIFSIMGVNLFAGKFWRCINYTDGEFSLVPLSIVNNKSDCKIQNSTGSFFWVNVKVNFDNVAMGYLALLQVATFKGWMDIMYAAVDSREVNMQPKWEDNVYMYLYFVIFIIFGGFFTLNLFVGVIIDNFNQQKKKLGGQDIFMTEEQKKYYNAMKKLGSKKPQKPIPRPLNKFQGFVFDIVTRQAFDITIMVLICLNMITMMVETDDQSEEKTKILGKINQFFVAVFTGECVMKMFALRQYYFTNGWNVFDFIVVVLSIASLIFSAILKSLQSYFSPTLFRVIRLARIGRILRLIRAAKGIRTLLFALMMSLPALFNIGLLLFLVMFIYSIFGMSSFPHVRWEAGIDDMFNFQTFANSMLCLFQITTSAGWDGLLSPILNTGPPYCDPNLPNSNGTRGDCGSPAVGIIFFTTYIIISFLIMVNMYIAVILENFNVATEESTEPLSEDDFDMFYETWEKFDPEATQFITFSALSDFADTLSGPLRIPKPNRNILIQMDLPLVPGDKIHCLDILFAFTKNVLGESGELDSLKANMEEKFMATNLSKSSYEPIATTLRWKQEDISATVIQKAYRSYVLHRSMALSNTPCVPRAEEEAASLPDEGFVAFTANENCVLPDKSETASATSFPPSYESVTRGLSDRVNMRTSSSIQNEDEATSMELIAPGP

The first experiment addresses T1, human Nav1.8 (hNav1.8) ion channel (Homo sapiens, UniProt Q9Y5Y9).
T1 construct: expressed in transfected cells
Description: Inhibition of human Nav1.8 stably expressed in SH-SY-5Y cells (membrane potential dye fluorescence assay). The format is cell-based. Conditions: SH-SY-5Y hNav1.8 cells; FLIPR membrane potential dye; 10 μM pyrethroid, 250 nM TTX; test concentration range 100 μM-0.05 μM; read-out: hNav1.8 IC50.
For the compound `CC(c1ccccc1Cl)N1CC2CC1CN2C(=O)N(C)c1ccc(Oc2ccc(F)cc2)cc1` (stereo not drawn) [Example 115, 5-[1-(2-Chloro-phenyl)-ethyl]-2,5-diaza-bicyclo[2.2.1]heptane-2-carboxylic acid [4-(4-fluoro-phenoxy)-phenyl]-methyl-amide], the IC50 was determined as 1.98 µM. The same measure, in the same setting: with `CC(c1ccc(F)cc1)N1CC2CC1CN2C(=O)Nc1ccc(Oc2ccccc2)cc1` (stereo not drawn) [Example 51, 5-[1-(4-Fluoro-phenyl)-ethyl]-2,5-diaza-bicyclo[2.2.1]heptane-2-carboxylic acid (4-phenoxy-phenyl)-amide] the figure was 0.41 µM; with `CC(Cc1ccc(Cl)cc1Cl)N1CC2CC1CN2C(=O)Nc1ccc(C(F)(F)F)cc1` (stereo not drawn) [Example 84, 5-[2-(2,4-Dichloro-phenyl)-1-methyl-ethyl]-2,5-diaza-bicyclo[2.2.1]heptane-2-carboxylic acid (4-trifluoromethyl-phenyl)-amide], 1.06 µM. As to `O=C(Nc1ccc(Oc2ccccc2)cc1)N1CC2CC1CN2C1Cc2ccccc2C1` (stereo not drawn) [Example 105, 5-Indan-2-yl-2,5-diaza-bicyclo[2.2.1]heptane-2-carboxylic acid (4-phenoxy-phenyl)-amide], the IC50 came out at 0.2 µM. The same measure, in the same setting: with `Cc1ccccc1C(C)N1CC2CC1CN2C(=O)Nc1ccc(OCCn2ccnc2)cc1` (stereo not drawn) [Example 43, 5-(1-o-Tolyl-ethyl)-2,5-diaza-bicyclo[2.2.1]heptane-2-carboxylic acid [4-(2-imidazol-1-yl-ethoxy)-phenyl]-amide] the figure was at least 30 µM; with `O=C(NCc1ccc(Oc2ccccc2)cc1)N1CC2CC1CN2C1Cc2ccc(F)cc2C1` (stereo not drawn) [Example 145, 5-(5-Fluoro-indan-2-yl)-2,5-diaza-bicyclo[2.2.1]heptane-2-carboxylic acid 4-phenoxy-benzylamide], 1.44 µM; with `O=C(c1ccc(C(F)(F)F)cc1)N1CC2CC1CN2C1CCc2ccc(F)cc2C1` (stereo not drawn) [Example 138, [5-(7-Fluoro-1,2,3,4-tetrahydro-naphthalen-2-yl)-2,5-diaza-bicyclo[2.2.1]hept-2-yl]-(4-trifluoromethyl-phenyl)-methanone], 13.3 µM.

Regarding `Cc1ccccc1C(C)N1CC2CC1CN2C(=O)Nc1ccc(Cc2ccccc2)cc1` (stereo not drawn) [Example 35, 5-(1-o-Tolyl-ethyl)-2,5-diaza-bicyclo[2.2.1]heptane-2-carboxylic acid (4-benzyl-phenyl)-amide], the IC50 amounted to 0.59 µM. As for `Cc1ccsc1CN1CC2CC1CN2C(=O)Nc1ccc(Oc2ccccc2)cc1` (stereo not drawn) [Example 1, 5-(3-Methyl-thiophen-2-ylmethyl)-2,5-diaza-bicyclo[2.2.1]heptane-2-carboxylic acid (4-phenoxy-phenyl)-amide], the IC50 is 0.41 µM. Turning to `Cc1ccccc1C(C)N1CC2CC1CN2C(=O)Nc1ccc(C(=O)c2ccccc2)cc1` (stereo not drawn) [Example 66, 5-(1-o-Tolyl-ethyl)-2,5-diaza-bicyclo[2.2.1]heptane-2-carboxylic acid (4-benzoyl-phenyl)-amide], the IC50 was found to be 0.72 µM. Still for that read-out and setting: with `Cc1ccc(Oc2ccc(NC(=O)N3CC4CC3CN4C(C)c3ccccc3Cl)cc2)cc1` (stereo not drawn) [Example 140, 5-[1-(2-Chloro-phenyl)-ethyl]-2,5-diaza-bicyclo[2.2.1]heptane-2-carboxylic acid (4-p-tolyloxy-phenyl)-amide] the figure was 1.23 µM. Still for that read-out and setting: next, `O=C(Nc1ccc(Oc2ccc(F)cc2)cc1)N1CCC2(CCN(Cc3ccccc3)C2)C1` (stereo not drawn) [Example 103, 7-Benzyl-2,7-diaza-spiro[4.4]nonane-2-carboxylic acid [4-(4-fluoro-phenoxy)-phenyl]-amide]: 0.39 µM; `CC(Cc1c(F)cccc1Cl)N1CC2CC1CN2C(=O)Nc1ccc(C(F)(F)F)cc1` (stereo not drawn) [Example 85, 5-[2-(2-Chloro-6-fluoro-phenyl)-1-methyl-ethyl]-2,5-diaza-bicyclo[2.2.1]heptane-2-carboxylic acid (4-trifluoromethyl-phenyl)-amide]: 0.63 µM. Take `Cc1ccccc1C(C)N1CC2CC1CN2C(=O)Nc1ccc(OCCN(C)C)cc1` (stereo not drawn) [Example 21, 5-(1-o-Tolyl-ethyl)-2,5-diaza-bicyclo[2.2.1]heptane-2-carboxylic acid [4-(2-dimethylamino-ethoxy)-phenyl]-amide]: the IC50 was 28.3 µM.

In the case of `O=C(Nc1ccc(Oc2ccccc2)cc1)N1CC2CN(Cc3ccccc3)CC2C1` (stereo not drawn) [Example 89, 5-Benzyl-hexahydro-pyrrolo[3,4-c]pyrrole-2-carboxylic acid (4-phenoxy-phenyl)-amide], the IC50 was 0.4 µM. The same measure, in the same setting: with `CC(c1ccc(F)cc1)N1CC2CC1CN2C(=O)Nc1ccc(C(F)(F)F)cc1` (stereo not drawn) [Example 46, 5-[1-(4-Fluoro-phenyl)-ethyl]-2,5-diaza-bicyclo[2.2.1]heptane-2-carboxylic acid (4-trifluoromethyl-phenyl)-amide] the figure was 1.31 µM. With `CC(c1ccccc1C(F)(F)F)N1CC2CC1CN2C(=O)Nc1ccc(C(F)(F)F)cc1` (single isomer, unassigned) [Example 54, 5-[1-(2-Trifluoromethyl-phenyl)-ethyl]-2,5-diaza-bicyclo[2.2.1]heptane-2-carboxylic acid (4-trifluoromethyl-phenyl)-amide], the IC50 came out at 1.75 µM. Same read-out and setting: next, `Cc1ccc(Oc2ccc(NC(=O)N3CC4CC3CN4C(C)c3ccc(Cl)cc3Cl)cc2)cc1` (stereo not drawn) [Example 127, 5-[1-(2,4-Dichloro-phenyl)-ethyl]-2,5-diaza-bicyclo[2.2.1]heptane-2-carboxylic acid (4-p-tolyloxy-phenyl)-amide]: 22.1 µM; `Cc1ccccc1C(C)N1CC2CC1CN2C(=O)Nc1ccc(OCCc2scnc2C)cc1` (stereo not drawn) [Example 42, 5-(1-o-Tolyl-ethyl)-2,5-diaza-bicyclo[2.2.1]heptane-2-carboxylic acid {4-[2-(4-methyl-thiazol-5-yl)-ethoxy]-phenyl}-amide]: 2.1 µM; `CC(c1ccccc1Cl)N1CC2CC1CN2C(=O)c1ccc(Oc2ccc(F)cc2)cc1` (stereo not drawn) [Example 151, {5-[1-(2-Chloro-phenyl)-ethyl]-2,5-diaza-bicyclo[2.2.1]hept-2-yl}-[4-(4-fluoro-phenoxy)-phenyl]-methanone]: 1.11 µM. For the compound `CC(c1c(F)cccc1Cl)N1CC2CC1CN2C(=O)c1ccc(Oc2ccc(F)cc2)cc1` (stereo not drawn) [Example 168, {5-[1-(2-Chloro-6-fluoro-phenyl)-ethyl]-2,5-diaza-bicyclo[2.2.1]hept-2-yl}-[4-(4-fluoro-phenoxy)-phenyl]-methanone], the IC50 turned out to be 1.7 µM.

The same experiment, now with this note: hNav1.8 IC50, SH-SY-5Y hNav1.8 cells; FLIPR membrane potential dye; 10 μM pyrethroid, 250 nM TTX; test concentration range 100 μM-0.05 μM.
The compound `CC(c1c(F)cccc1Cl)N1CC2CC1CN2C(=O)Cc1ccc(Oc2ccc(F)cc2)cc1` (single isomer, unassigned) [Example 166, 1-{5-[1-(2-Chloro-6-fluoro-phenyl)-ethyl]-2,5-diaza-bicyclo[2.2.1]hept-2-yl}-2-[4-(4-fluoro-phenoxy)-phenyl]-ethanone] showed an IC50 of 3.91 µM. Compound `Cc1ccccc1C(C)N1CC2CC1CN2C(=O)Cc1ccc(Oc2cccc(F)c2)cc1` (stereo not drawn) [Example 171, 2-[4-(3-Fluoro-phenoxy)-phenyl]-1-[5-(1-o-tolyl-ethyl)-2,5-diaza-bicyclo[2.2.1]hept-2-yl]-ethanone] came in with an IC50 of 0.67 µM. The compound `O=C(Cc1ccc(C(F)(F)F)cc1)N1CC2CC1CN2C1CCc2ccccc2C1` (stereo not drawn) [Example 147, 1-[5-(1,2,3,4-Tetrahydro-naphthalen-2-yl)-2,5-diaza-bicyclo[2.2.1]hept-2-yl]-2-(4-trifluoromethyl-phenyl)-ethanone] returned an IC50 of 3.1 µM.
